Patent publication US20020013306A1, “TERPYRIDINE-PLATINUM(II) COMPLEXES” (priority 1996, published 2002)
“And” between values parts separate entries of the source, which are not always exact repeats. Equal entries are not always repeated. Where two headings read alike, the source gives them in different places.

How the values were obtained:
[1] = tested on: CH1dox^R human ovarian carcinoma cell line (doxorubicin resistant); assay: 96 h growth inhibition, sulforhodamine B assay, CH1doxR; assay type: cell-based; conditions: for IC50: 96 h exposure, growth inhibition; for RF resistance factor: IC50 resistant line/IC50 parent line: CH1dox^R / CH1
[2] = tested on: SKOV3 human ovarian carcinoma cell line; assay: 96 h growth inhibition, sulforhodamine B assay, SKOV3; assay type: cell-based; conditions: 96 h exposure, v = variable (mean)
[3] = tested on: T. brucei (S427) bloodstream trypomastigotes; assay: Trypanosoma brucei bloodstream trypomastigote culture; assay type: cell-based
calf-thymus (ct)-DNA = conditions: literature [1]-[3]; cited from earlier work
[4] = tested on: CH1cis^R human ovarian carcinoma cell line (cisplatin resistant); assay: 96 h growth inhibition, sulforhodamine B assay, CH1cisR; assay type: cell-based; conditions: for IC50: 96 h exposure, growth inhibition, v = variable (mean); for RF resistance factor: IC50 resistant line/IC50 parent line: CH1cis^R / CH1
[5] = tested on: A2780cis^R human ovarian carcinoma cell line (cisplatin resistant); assay: 96 h growth inhibition, sulforhodamine B assay, A2780cisR; assay type: cell-based; conditions: for IC50: 96 h exposure, growth inhibition, v = variable (mean); for RF resistance factor: IC50 resistant line/IC50 parent line: A2780cis^R / A2780
[6] = tested on: A2780 human ovarian carcinoma cell line; assay: 96 h growth inhibition, sulforhodamine B assay, A2780; assay type: cell-based; conditions: 96 h exposure, v = variable (mean)
T. cruzi (MHOM/BR/00/Y) = assay: Trypanosoma cruzi in mouse peritoneal macrophages; assay type: cell-based
Method: Trypanosoma cruzi: […] Drug activity was determined from the % of infected macrophages in treated cultures. Nifurtimox was used as the positive control.

[7] = tested on: CH1 human ovarian carcinoma cell line; assay: 96 h growth inhibition, sulforhodamine B assay, CH1; assay type: cell-based; conditions: 96 h exposure, v = variable (mean)
[8] = tested on: P falciparum (chloroquin resistant strain K1); assay: In vitro antimalarial activity, chloroquine resistant K1; conditions: for % Inhibition (compound duplicates), K1 P. falciparum: duplicates (1),(2)
Method: Plasmodium falciparum: P falciparum (chloroquin resistant strain K1) was cultured at 37° C. in a 5% suspension of infected so erythrocytes (group A Rh^+) in complete medium as described by E L Elueze, S L Croft and D C Warhurst, J Antimicrobial Chemotherapy, 1996, 37, 511-518. The in vitro antimalarial activity of compounds were likewise determined according to their protocol. Mefloquin was used as the positive control.”

[9] = read-out: IC50 (avg), K1 P. falciparum, average of duplicates

| Molecule | IC50 [1] [µM] | RF resistance factor: IC50 resistant line/IC50 parent line [1] | IC50 [2] [µM] | % Inhibition, Trypanosoma brucei ([3]; 0.1 μM) [%] | % Inhibition, Trypanosoma brucei ([3]; 0.3 μM) [%] | % Inhibition, Trypanosoma brucei ([3]; 1 μM) [%] | % Inhibition, Trypanosoma brucei ([3]; 3 μM) [%] | % Inhibition, Trypanosoma brucei ([3]; 10 μM) [%] | % Inhibition, Trypanosoma brucei ([3]; 30 μM) [%] | binding association constant with ct-DNA (calf-thymus (ct)-DNA) | IC50 [4] [µM] | RF resistance factor: IC50 resistant line/IC50 parent line [4] | IC50 [5] [µM] | RF resistance factor: IC50 resistant line/IC50 parent line [5] | IC50 [6] [µM] | % Inhibition, Trypanosoma cruzi (T. cruzi (MHOM/BR/00/Y); 1 μM) [%] | % Inhibition, Trypanosoma cruzi (T. cruzi (MHOM/BR/00/Y); 3 μM) [%] | % Inhibition, Trypanosoma cruzi (T. cruzi (MHOM/BR/00/Y); 10 μM) [%] | % Inhibition, Trypanosoma cruzi (T. cruzi (MHOM/BR/00/Y); 30 μM) [%] | IC50 [7] [µM] | other results |
| --- | --- | --- | --- | --- | --- | --- | --- | --- | --- | --- | --- | --- | --- | --- | --- | --- | --- | --- | --- | --- | --- |
| [Cl-].[Cl-].[Pt+2].c1ccc(-c2cccc(-c3ccccn3)n2)nc1 [Compound A13, chloro(2,2′:6′,2″-terpyridine)platinum(II) chloride] | 3.75 | 0.6 | 19.5 | 26.2 | 100 | 100 | 100 | 100 | 100 | essentially the same binding constant | 6.4 | 1 | 41 | 0.8 | 49 | 52.0 | 76.0 | 99.0 | 99.3 | 6.6 |  |
| Cc1cc[n+]([Pt-2]23[n+]4ccccc4-c4cc(Cl)cc([n+]42)-c2cccc[n+]23)cc1.F[B-](F)(F)F.F[B-](F)(F)F [I] | 0.425 | 0.07 | 5.6 | 99.2 | 83.8 | 100 | 100 | 100 | 100 |  | 6.4 | 1 | 14.5 | 1 | 14.5 | 59.7 | 73.5 | 97.0 | 100 | 6.35 | % Inhibition (compound duplicates), K1 P. falciparum ([8]; Concn. 15 μM): 14.2% and 9.4%; % Inhibition (compound duplicates), K1 P. falciparum ([8]; Concn. 30 μM): 93.2% and 90.9%; % Inhibition (compound duplicates), K1 P. falciparum ([8]; Concn. 75 μM): 1.9% and 2.1%; % Inhibition (compound duplicates), K1 P. falciparum ([8]; Concn. 375 μM): 0%; % Inhibition (compound duplicates), K1 P. falciparum ([8]; Concn. 1875 μM): 0%; % Inhibition (compound duplicates), K1 P. falciparum ([8]; Concn. 09375 μM): 0%; % Inhibition (compound duplicates), K1 P. falciparum ([8]; Concn. 046875 μM): 0%; % Inhibition (compound duplicates), K1 P. falciparum ([8]; Concn. 0234375 μM): 0%; IC50 [8, 9]: 20.6 µM; IC50 ([8]; read-out: IC50, K1 P. falciparum, each duplicate (1),(2)): 19.9 µM and 21.2 µM |
| hydroxyethanethiol-2,2′:6′,2″-terpyridine-platinum(II) [1,R═SCH2CH2OH, reference compound] |  |  |  |  |  |  |  |  |  | 83000 M⁻¹ |  |  |  |  |  |  |  |  |  |  |  |
| Cc1cc[n+]([Pt-2]23[n+]4ccccc4-c4cc(-c5ccc(Br)cc5)cc([n+]42)-c2cccc[n+]23)cc1.F[B-](F)(F)F.F[B-](F)(F)F [Q] | 1.05 | 0.2 | > 100 | 0 | 100 | 100 | 100 | 100 | 100 |  | 5.8 | 1.2 | 29.5 | 0.8 | 39 |  |  |  |  | 5 | % Inhibition (compound duplicates), K1 P. falciparum ([8]; Concn. 15 μM): 97.0%; % Inhibition (compound duplicates), K1 P. falciparum ([8]; Concn. 30 μM): 99.8%; % Inhibition (compound duplicates), K1 P. falciparum ([8]; Concn. 75 μM): 98.6%; % Inhibition (compound duplicates), K1 P. falciparum ([8]; Concn. 375 μM): 60.8%; % Inhibition (compound duplicates), K1 P. falciparum ([8]; Concn. 1875 μM): 46.1%; % Inhibition (compound duplicates), K1 P. falciparum ([8]; Concn. 09375 μM): 0%; % Inhibition (compound duplicates), K1 P. falciparum ([8]; Concn. 046875 μM): 0%; % Inhibition (compound duplicates), K1 P. falciparum ([8]; Concn. 0234375 μM): 0%; IC50 [8, 9]: 2.4 µM |
| CC(=O)c1cc[n+]([Pt-2]23[n+]4ccccc4-c4cccc([n+]42)-c2cccc[n+]23)cc1.F[B-](F)(F)F.F[B-](F)(F)F [Compound A2] | 1.18 | 0.54 | 11.1 | 62.7 | 86.4 | 100 | 100 | 100 | 100 |  | 2.3 | 1.05 | 7.5 | 1.25 | 5.9 | 3.8 |  |  |  | 2.2 | % Inhibition, Trypanosoma brucei ([3]; 0.03 μM): 50.0% |
| F[B-](F)(F)F.F[B-](F)(F)F.[NH3+][Pt-2]12[n+]3ccccc3-c3cccc([n+]31)-c1cccc[n+]12 [Compound A12] | 3.75 | 0.7 | 15 | 83.8 | 98.5 | 100 | 100 | 100 | 100 |  | 4.5 | 0.9 | 23.5 | 2 | 11.5 | 72.3 | 100 | 100 | 100 | 5.2 |  |
